Converted amounts (≈) assume the structure as drawn.
System: Visna-Virus
Assay: Visna virus test: inhibition of the virus-induced cytopathic effect in infected sheep fibroblast cultures
Type: cell-based
Conditions: Visna-maedi virus, Fibroblastenzellen vom Schaf, MOI ca. 0,05, 7 Tage bei 37°C 5% CO₂, concentration at which the cytopathic effect is inhibited by 50%, read microscopically
Excerpt: In Zellkulturen, die mit Visna-Virus infiziert sind, treten 5 bis 10 Tage nach der Infektion ausgeprägte virusinduzierte, zytopathische Effekte auf. Durch Behandlung der infizierten Zellkulturen mit den erfindungsgemäßen Verbindungen konnte das Auftreten dieser zytopathischen Effekte verhindert werden.
Der Visna-Virus-Test wurde nach der Methode von O. Narayan et al., Journal of Infectious Diseases 135, 5, 1977, 800 - 806 durchgeführt. Dazu wurden die erfindungsgemäßen Verbindungen im Kulturmedium in nicht zytotoxischen Konzentrationen in 96er Microtiterplatten verdünnt. Anschließend wurden Fibroblastenzellen vom Schaf (5 x 10⁴ Zellen pro Napf) in Produktionsmedium zu jedem Näpfchen zugeführt. Jedes Näpfchen erhielt dann 50 µl einer Visna-Viruslösung mit einer Titer von ca. […] TCID₅₀ (TCID = tissue culture infectious dosis). Diese Virusdosis entspricht einer MOI (Multiplizität der Infektion) von ca. 0,05.
Unter diesen Infektionsbedingungen resultierte zwischen Tag 5 und Tag 10 in einer Infektionskontrolle ohne Substanz ein virusinduzierter, zytopathischer Effekt. Die infizierten und behandelten Zellen und die Kontrollzellen wurden 7 Tage bei 37°C 5% CO₂ inkubiert.
Bei Auftreten des virusinduzierten zytopathogenen Effektes in der unbehandelten Viruskontrolle wurden die Kulturen mit Formalin fixiert und anschließend mit einer Giemsa-Lösung gefärbt. Die inhibitorische Konzentration (IC₅₀) wurde mikroskopisch als die Konzentration ermittelt, bei der der zytopathische Effekt um 50% gehemmt wurde: im Vergleich zur unbehandelten Viruskontrolle, die 100% Zellzerstörung aufwies.

SMILES | IC50 [µg/mL]
CC=CCN1CC(OC(=O)c2ccccc2)C(OC(=O)c2ccccc2)C(O)C1CO (stereo not drawn) [Beispiel 3, N-Butenyl-2,3-dibenzoyl-desoxynojirimycin] | 50 (≈ 118 µM)
CC=CCN1CC(OC(C)=O)C(OC(C)=O)C(O)C1CO (stereo not drawn) [Beispiel 6] | 12.5 (≈ 41.5 µM)
CC=CCN1CC(OC(=O)CC(C)C)C(OC(=O)CC(C)C)C(O)C1CO (stereo not drawn) [Beispiel 10] | 20 (≈ 51.9 µM)
